# Test results as given in US20240400553A1, “AMINE BASED MATRIPTASE 2 INHIBITORS AND USES THEREOF” (Disc Medicine, Inc., priority 2023, published 2024).
# Molecular target: T1, Human Recombinant Matriptase 2 (Homo sapiens, UniProt Q8IU80)
# T1 construct: made in house
# T1 sequence (Q8IU80 1-811): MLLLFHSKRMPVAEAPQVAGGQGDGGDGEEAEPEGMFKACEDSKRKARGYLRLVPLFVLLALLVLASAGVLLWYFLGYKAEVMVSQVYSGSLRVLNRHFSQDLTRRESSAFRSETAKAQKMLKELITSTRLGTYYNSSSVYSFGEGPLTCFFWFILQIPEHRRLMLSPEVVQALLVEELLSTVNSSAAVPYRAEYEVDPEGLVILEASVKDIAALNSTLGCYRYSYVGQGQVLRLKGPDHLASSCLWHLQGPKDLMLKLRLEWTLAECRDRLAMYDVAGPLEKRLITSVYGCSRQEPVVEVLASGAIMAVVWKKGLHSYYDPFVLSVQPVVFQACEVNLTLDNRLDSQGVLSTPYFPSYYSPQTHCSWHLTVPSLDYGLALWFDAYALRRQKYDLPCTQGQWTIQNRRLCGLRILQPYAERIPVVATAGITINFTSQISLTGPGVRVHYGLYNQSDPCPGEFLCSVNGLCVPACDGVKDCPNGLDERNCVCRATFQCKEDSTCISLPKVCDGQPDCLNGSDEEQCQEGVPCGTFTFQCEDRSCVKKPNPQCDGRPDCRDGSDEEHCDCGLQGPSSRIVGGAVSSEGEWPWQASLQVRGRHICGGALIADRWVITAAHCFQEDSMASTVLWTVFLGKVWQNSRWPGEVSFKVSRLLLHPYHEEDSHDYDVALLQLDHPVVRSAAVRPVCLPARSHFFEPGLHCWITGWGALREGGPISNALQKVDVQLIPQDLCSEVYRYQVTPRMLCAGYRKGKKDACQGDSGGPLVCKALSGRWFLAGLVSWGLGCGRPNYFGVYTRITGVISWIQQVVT
# Experiment: Matriptase 2 inhibition, fluorescence based assay (Method I)
# Format: biochemical
# Conditions: Table A; Ki of Matriptase-2; read-out: Mat-2 Ki
# Outline: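 Fluorogenic readout (Ex 360/Em 480 nm) taken 60 min after adding 62 μM Boc-Gln-Ala-Arg-AMC, following 30-min enzyme–compound preincubation at 25 °C. Conditions: 3.5 nM in-house enzyme, pH 7.5 Tris/NaCl/gelatin buffer, 1% DMSO; percent inhibition versus concentration fitted by variable-slope sigmoidal regression.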
row,Compound,Ki [nM]
1,CN1CCC(COC(=O)c2cc3ccc(CN)nc3n2Cc2cc(NS(=O)(=O)CC[C@@H]3CCCN3)cc3ccccc23)CC1 [Compound 2],500 to 3000
2,CNC(=O)c1cc2ccc(CN)nc2n1Cc1cc(NS(=O)(=O)CC[C@@H]2CCCN2)cc2ccccc12 [Compound 3],100 to 500
3,NCc1ccc2cc(C(=O)O)n(Cc3cc(NS(=O)(=O)Cc4ccsc4)cc4ccccc34)c2n1 [Compound 4],≤ 100
4,CN1CCC(COC(=O)c2cc3ccc(CN)nc3n2Cc2cc(NS(=O)(=O)Cc3ccsc3)cc3ccccc23)CC1 [Compound 5],≤ 100
5,"CN1CCC(CNC(=O)c2cc3ccc(CN)nc3n2Cc2cc(NS(=O)(=O)Cc3ccsc3)cc3ccccc23)CC1 [Compound 6, 6-(aminomethyl)-N-((1-methylpiperidin-4-yl)methyl)-1-((3-((thiophen-3-ylmethyl)sulfonamido)naphthalen-1-yl)methyl)-1H-pyrrolo[2,3-b]pyridine-2-carboxamide]",≤ 100

# Same assay, conditions: Table B; Human Recombinant Matriptase 2, 3.5 nM enzyme, 62 μM substrate, 30 mins preincubation; read-out: Mean Ki
row,Compound,Ki [nM]
1,Cn1ccnc1CCOC(=O)c1cc2ccc(CN)nc2n1Cc1cc(NS(=O)(=O)Cc2ccsc2)cc2ccccc12 [Compound 2.29],≤ 100
2,C=Cc1c(N)cc(Br)cc1Cn1c(C(=O)OCC2CCN(C)CC2)cc2ccc(CN)nc21 [Compound 2.30],> 3000
3,CB1C=Cc2c(Cn3c(C(=O)OCC4CCN(C)CC4)cc4ccc(CN)nc43)cc(Br)cc2N1 [Compound 2.31],500 to 3000
4,CN1CCC(C(OC(=O)c2cc3ccc(CN)nc3n2Cc2cc(NS(=O)(=O)Cc3ccccc3)cc3ccccc23)C2CC2)CC1 (stereo not drawn) [Compound 2.33],≤ 100
5,CN(C)c1ccc(NC(=O)c2cc3ccc(CN)nc3n2Cc2cc(NS(=O)(=O)Cc3ccccc3)cc3ccccc23)cc1 [Compound 2.36],100 to 500
6,CN1CCC(COC(=O)c2cc3ccc(CN)nc3n2CC(NS(=O)(=O)Cc2ccccc2)c2ccccc2)CC1 (stereo not drawn) [Compound 2.37],> 3000
7,CNC12CC(COC(=O)c3cc4ccc(CN)nc4n3Cc3cc(NS(=O)(=O)Cc4c(C)cccc4C)cc4c3CCCC4)(C1)C2 [Compound 2.38],≤ 100
8,CN1CCC(COC(=O)c2cc3ccc(CN)nc3n2Cc2cccn3ccnc23)CC1 [Compound 2.39],> 3000
9,CN(C)C12CC(COC(=O)c3cc4ccc(CN)nc4n3Cc3cc(NS(=O)(=O)Cc4ccccc4)cc4ccccc34)(C1)C2 [Compound 2.40],≤ 100
10,Cc1cccc(C)c1CS(=O)(=O)Nc1cc2c(c(Cn3c(C(=O)OCc4cncn4C(C)(C)C)cc4ccc(CN)nc43)c1)CCCC2 [Compound 2.42],100 to 500
11,Cc1cccc(C)c1CS(=O)(=O)Nc1cc2c(c(Cn3c(C(=O)OCC4CCN(C)CC4)cc4ccc(CN)nc43)c1)CCCC2 [Compound 2.43],≤ 100
12,Cc1cccc(C)c1CS(=O)(=O)Nc1cc2c(c(Cn3c(C(=O)OCc4nccn4C)cc4ccc(CN)nc43)c1)CCCC2 [Compound 2.44],100 to 500
13,CN1CCC(COC(=O)c2cc3ccc(CN)nc3n2Cc2cc(NS(=O)(=O)Cc3ccccc3)cs2)CC1 [Compound 2.45],> 3000
14,CN1CCC(COC(=O)c2cc3ccc(CN)nc3n2Cc2cccc3cnccc23)CC1 [Compound 2.46],> 3000
15,CN1CCC(COC(=O)c2cc3ccc(CN)nc3n2Cc2cccc(NS(=O)(=O)Cc3ccccc3)c2)CC1 [Compound 2.48],100 to 500

# Results, then the compound that gave them:
row,Ki [nM],Compound
1,≤ 100,CN1CCC(COC(=O)c2cc3ccc(CN)nc3n2Cc2cc(NS(=O)(=O)Cc3ccsc3)cc3ccccc23)CC1=O (stereo not drawn) [Compound 2.32]
2,≤ 100,CNC12CC(COC(=O)c3cc4ccc(CN)nc4n3Cc3cc(NS(=O)(=O)Cc4c(C)cccc4C)cc4ccccc34)(C1)C2 [Compound 2.34]
3,100 to 500,NCc1ccc2cc(C(=O)Nc3ccc(N)cc3)n(Cc3cc(NS(=O)(=O)Cc4ccccc4)cc4ccccc34)c2n1 [Compound 2.35]
4,≤ 100,CNC12CC(COC(=O)c3cc4ccc(CN)nc4n3Cc3cc(NS(=O)(=O)Cc4ccccc4)cc4ccccc34)(C1)C2 [Compound 2.41]
